# Results as given in patent US9951060B2, “2-acylaminothiazole derivative or salt thereof” (ASTELLAS PHARMA INC., priority 2014, dated 2018).
# Where two headings read alike, the source gives them in different places.
# Experiments:
# [1] = molecular target: T1, human c-Mpl-introduced Ba/F3 cell (Homo sapiens, UniProt P40238); conditions: disclosed in Table 1 of Patent Document 1 (WO 2005/007651); cited from earlier work
# T1 construct: expressed in transfected cells
# T1 sequence (P40238 26-635): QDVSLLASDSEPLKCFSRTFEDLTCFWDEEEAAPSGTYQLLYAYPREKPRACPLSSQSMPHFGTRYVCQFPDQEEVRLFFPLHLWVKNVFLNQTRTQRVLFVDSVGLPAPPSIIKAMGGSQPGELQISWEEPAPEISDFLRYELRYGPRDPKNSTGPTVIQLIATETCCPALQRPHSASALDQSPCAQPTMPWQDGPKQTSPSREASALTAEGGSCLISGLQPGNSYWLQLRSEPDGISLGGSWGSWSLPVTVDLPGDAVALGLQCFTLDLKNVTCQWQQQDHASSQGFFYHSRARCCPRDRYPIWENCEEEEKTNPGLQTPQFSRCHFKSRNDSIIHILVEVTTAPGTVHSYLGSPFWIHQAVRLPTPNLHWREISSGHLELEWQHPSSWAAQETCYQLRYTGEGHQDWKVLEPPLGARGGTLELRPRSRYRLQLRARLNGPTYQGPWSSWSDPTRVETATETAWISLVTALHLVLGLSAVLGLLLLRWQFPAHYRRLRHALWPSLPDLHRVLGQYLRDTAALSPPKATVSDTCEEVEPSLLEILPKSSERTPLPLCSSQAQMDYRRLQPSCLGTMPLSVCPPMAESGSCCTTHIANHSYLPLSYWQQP
# [2] = molecular target: T1, human c-Mpl-introduced Ba/F3 cell; test: Test Example 2: human c-Mpl-introduced Ba/F3 cell proliferative activity; format: cell-based; conditions: concentration exhibiting 30% proliferation; 100% = positive control (Example 315 of Patent Document 1) at 1 μM
# Experimental: Test Example 2: Evaluation of Human c-Mpl-Introduced Ba/F3 Cell Proliferative Activity
# The human c-Mpl-introduced Ba/F3 cell proliferation action was measured by the following method.
# As a positive control, 1-(5-{[4-(4-chlorothiophen-2-yl)-5-{[(2R)-2-methylpyrrolidin-1-yl]methyl}-1,3-thiazol-2-yl]carbamoyl}-3-fluoropyridin-2-yl)piperidine-4-carboxylic acid hydrochloride disclosed as Example 315 in Patent Document 1, represented by the formula (A1) above, was used. Further, it is known that the compound has a good human c-Mpl-introduced Ba/F3 cell proliferative activity as disclosed in Table 1 in Patent Document 1.
# a) Construction of Vector Expressing Human c-Mpl Receptor
# A human c-Mpl receptor gene (GenBank Accession No.: M90102.1) was transfected into an expression vector pEF-BOS (Nucleic Acids Research, 18: pp 5322 (1990)).
# b) Construction of Cell Stably Expressing Human c-Mpl Receptor
# A vector expressing a human c-Mpl receptor was introduced into a Ba/F3 cell (RIKEN BRC: RCB0805). For the introduction, an electroporation method was used. pEF-BOS-c-mpl (10 μg), pSV2bsr (1 μg, Kaken Pharmaceutical Co., Ltd.) and 1×10^7 of Ba/F3 cells were put into cuvettes with a gap width of 0.4 cm and electroporated under a condition of 1.5 kV (25 μF) in a Gene Pulser (registered trademark) (BioRad). The cells were incubated in an RPMI-1640 medium supplemented with a 0.5% WEHI conditioned medium (BD Biosciences) and 10% fetal bovine serum for 3 days, and thereafter, and the cells were incubated for 30 days in an RPMI-1640 medium, to which 10 μg/mL blasticidin had been further added, thereby acquiring a drug-resistant clone.
# c) Measurement of Cell Proliferative Activity
# The cells obtained in b) above were dispensed into an RPMI-1640 medium supplemented with a 0.5% WEHI conditioned medium and 10% fetal bovine serum, and used. The day before the experiment, the test substances (final concentration of 100 nM to 10 μM) which had been dissolved in a medium for assay (an RPMI-1640 medium supplemented with 10% fetal bovine serum) were added to a 384-well plate (Model No. 781185, Greiner bio-one). The cells after the medium had been replaced with the medium for assay were dispensed to a 384-well plate to which the test substance had been added, to 1×10^4 cells/well, and incubated overnight at 37° C. and 5% CO2. On the experiment day, a solution of a Cell counting kit (Dojindo Laboratories) was added to each well of the 384-well plate, and the cells were incubated for about 5 hours at 37° C. and 5% CO2. Thereafter, the absorbance (an absorbance wavelength of 450 nm) of each well was measured using Safire^2 (registered trademark) (TECAN), and used as an index for the number of cells. Further, as a negative control, a well to which the test substances had not been added was prepared.
# By taking the absorbance of the well to which the test substance had been not added as 0% and taking the absorbance in a case where the positive control had been added to a final concentration of 1 μM as 100%, a cell proliferation rate (%) was calculated from the absorbance of the well to which the test substance had been added.
# [3] = molecular target: T2, human muscarinic M3 receptor (Homo sapiens, UniProt P20309); test: Test Example 1: muscarinic M3 receptor positive allosteric modulator activity (shift of carbachol concentration-response curve, intracellular Ca2+, FLIPR); conditions: carbachol EC50 without / with test substance, CHO-K1 cells expressing human M3
# Text: (§1) Test Example 1: Evaluation of Muscarinic M3 Receptor Positive Allosteric Modulator Activity
# (§2) a) Construction of Vector Expressing Human Muscarinic M3 Receptor
# (§3) A human muscarinic M3 receptor gene (GenBank Accession No.: NM_000740.2) was introduced into an expression vector pcDNA3.1™ (Life Technologies).
# (§4) b) Construction of Cells Stably Expressing Human Muscarinic M3 Receptor
# (§5) A vector expressing a human muscarinic M3 receptor was introduced into a CHO—K1 cell (ATCC No.: CCL-61). The introduction was carried out according to the attached instructions, using a transfection reagent, Lipofectoamine (registered trademark) 2000 Reagent (Life Technologies). The cells were incubated in an alpha Modified Eagle Minimum Essential Medium (α-MEM) including 2 mM glutamine, 10% fetal bovine serum, and 2.0 mg/mL Geneticin (registered trademark) (Life Technologies) for 4 weeks to acquire a drug-resistant clone.
# (§6) c) Measurement of Intracellular Ca^2+ Concentration
# (§7) The cells obtained in b) above were suspended in an α-MEM including 2 mM glutamine, 10% fetal bovine serum, and 0.2 mg/mL Geneticin (registered trademark) to the amount from 1.2 to 1.5×10^4 cells/well the day before the experiment, dispensed into a 384-well plate (Model No. 355962, BD Biosciences), and incubated overnight at 37° C. and 5% CO2. The medium was replaced with a loading buffer (an assay buffer (Hank's balanced salt solution (HBSS), 1 g/L BSA, 20 mM HEPES (pH 7.5), and 2.5 mM probenecid), including 3.1 μM Fluo 4-AM (Dojindo Laboratories) and incubated for about 2 hours at room temperature. Thereafter, the cells were washed with a plate washer ELx405™ (BIO-TEK Instrument, Inc.) set with the assay buffer, and set in an intracellular Ca^2+ concentration measuring system (FLIPR^tetra (registered trademark), Molecular Device Co.). The test substances (final concentration of 1 μM or 10 μM) and carbachol (Sigma, final concentration of 0.0024 nM to 10 μM) which had each been dissolved in the assay buffer in advance were set in a FLIPR^tetra (registered trademark). The test substances were added to the cells in the device and after about 5 minutes, carbachol was added to the cells. An increase rate of the intracellular Ca^2+ concentration by carbachol was measured (excitement wavelength of 470 nm to 495 nm and a fluorescence wavelength of 515 nm to 575 nm).
# (§8) For the muscarinic M3 receptor-positive allosteric modulator activity, a shift toward a lower concentration side of a carbachol concentration-response curve by the test substance was used as an index. […] For example, when the EC50 value of carbachol in the absence of the test substance was 0.1 μM and the EC50 value of carbachol in the presence of the test substance was 0.01 μM, the value of the muscarinic M3 receptor-positive allosteric modulator activity becomes 10, showing that the test substance causes a 10-fold shift in the EC50 value toward to the low concentration side.
# [4] = molecular target: T2, human muscarinic M3 receptor
# Text: as §1, §2, §3, §4, §5, §6, §7, §8
# T2 sequence (P20309 whole entry): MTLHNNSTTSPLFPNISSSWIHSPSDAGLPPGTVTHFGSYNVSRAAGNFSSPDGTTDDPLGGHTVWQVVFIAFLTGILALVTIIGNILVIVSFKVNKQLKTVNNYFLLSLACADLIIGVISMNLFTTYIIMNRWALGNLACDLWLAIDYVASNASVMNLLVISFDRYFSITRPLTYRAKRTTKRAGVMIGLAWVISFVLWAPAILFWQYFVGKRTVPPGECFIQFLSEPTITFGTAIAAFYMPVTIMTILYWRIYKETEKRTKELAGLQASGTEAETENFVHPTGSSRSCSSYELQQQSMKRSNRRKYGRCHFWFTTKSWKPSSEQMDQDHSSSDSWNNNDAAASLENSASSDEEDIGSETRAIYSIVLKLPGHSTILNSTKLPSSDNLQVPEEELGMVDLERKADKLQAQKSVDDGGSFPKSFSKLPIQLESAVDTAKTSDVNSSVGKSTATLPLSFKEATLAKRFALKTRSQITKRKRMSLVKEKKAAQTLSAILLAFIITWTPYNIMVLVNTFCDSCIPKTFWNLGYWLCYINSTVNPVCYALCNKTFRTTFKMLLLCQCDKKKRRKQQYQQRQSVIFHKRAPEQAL
Compound,human c-Mpl-introduced Ba/F3 cell proliferative activity EC30 [2] [µM],"muscarinic M3 receptor-positive allosteric modulator activity, 1 μM (-fold shift) ([3]; test substance 1 μM)","muscarinic M3 receptor-positive allosteric modulator activity, 10 μM (-fold shift) ([3]; test substance 10 μM)","muscarinic M3 receptor-positive allosteric modulator activity, 1 μM (-fold shift) [4]","muscarinic M3 receptor-positive allosteric modulator activity, 10 μM (-fold shift) [4]",EC30 value of c-Mpl-introduced Ba/F3 cell proliferation action [1] [µM]
"C[C@@H]1CCCN1Cc1sc(NC(=O)c2cnc(N3CCC(C(=O)O)CC3)c(F)c2)nc1-c1cc(Cl)cs1.Cl [Example 315, 1-(5-{[4-(4-chlorothiophen-2-yl)-5-{[(2R)-2-methylpyrrolidin-1-yl]methyl}-1,3-thiazol-2-yl]carbamoyl}-3-fluoropyridin-2-yl)piperidine-4-carboxylic acid hydrochloride]",–,–,–,–,–,0.0032
"Cc1cc(-c2nc(NC(=O)c3cnc(N4CCN(CCC(=O)[O-])CC4)cn3)sc2CN2CCCC[C@H]2C)cc(C(F)(F)F)c1.[Na+] [Example 4, sodium 3-(4-{5-[(5-{[(2R)-2-methylpiperidin-1-yl]methyl}-4-[3-methyl-5-(trifluoromethyl)phenyl]-1,3-thiazol-2-yl)carbamoyl]pyrazin-2-yl}piperazin-1-yl)propanoate]",>3,25 -fold shift,200 -fold shift,–,–,–
C[C@@H]1CCCN1Cc1sc(NC(=O)c2cnc(N3CCN(CCC(=O)O)CC3)cn2)nc1-c1ccc(C2CC2)c(C(F)(F)F)c1 [Example 63],>10,–,–,39 -fold shift,186 -fold shift,–
CCOc1ccc(-c2nc(NC(=O)c3cnc(N4CCN(CCC(=O)O)CC4)cn3)sc2CN2CCC[C@H]2C)cc1C(F)(F)F [Example 54],>10,–,–,36 -fold shift,134 -fold shift,–

# Continued, in another order:
human c-Mpl-introduced Ba/F3 cell proliferative activity EC30 [2] [µM],"muscarinic M3 receptor-positive allosteric modulator activity, 1 μM (-fold shift) ([3]; test substance 1 μM)","muscarinic M3 receptor-positive allosteric modulator activity, 10 μM (-fold shift) ([3]; test substance 10 μM)","muscarinic M3 receptor-positive allosteric modulator activity, 1 μM (-fold shift) [4]","muscarinic M3 receptor-positive allosteric modulator activity, 10 μM (-fold shift) [4]",Compound,EC30 value of c-Mpl-introduced Ba/F3 cell proliferation action [1] [µM]
8,–,–,73 -fold shift,192 -fold shift,C[C@H]1CN(c2cnc(C(=O)Nc3nc(-c4cc(Cl)cs4)c(CN(C)CC4CC4)s3)cn2)CCN1CCC(=O)O [Example 128],–
>10,–,–,95 -fold shift,151 -fold shift,C[C@@H]1CN(c2cnc(C(=O)Nc3nc(-c4cc(Cl)cs4)c(CN(C)CC4CC4)s3)cn2)CCN1CCC(=O)O [Example 130],–
5,–,–,203 -fold shift,627 -fold shift,C[C@@H]1CC[C@@H](C)N1Cc1sc(NC(=O)c2cnc(N3CCN(CCC(=O)O)CC3)cn2)nc1-c1cc(C(F)(F)F)cs1 [Example 111],–
>10,–,–,27 -fold shift,177 -fold shift,CC[C@@H]1CCCN1Cc1sc(NC(=O)c2cnc(N3CCN(CCC(=O)O)CC3)cn2)nc1-c1cc(C2CC2)cc(C(F)(F)F)c1 [Example 69],–
